Reference: patent publication US9408835B2, “Pharmaceutical composition for oral administration” (ASTELLAS PHARMA INC., priority 2013, dated 2016)
In brackets after ≈: the same amount, converted by molar mass. Like-named read-outs stand apart in the source and are kept apart here.

How the values were obtained:
[1] = biological target: T1, Janus kinase 3 (Homo sapiens, UniProt P52333); details: reported in Patent literature 1; cited from earlier work
T1 sequence (P52333 1-1124): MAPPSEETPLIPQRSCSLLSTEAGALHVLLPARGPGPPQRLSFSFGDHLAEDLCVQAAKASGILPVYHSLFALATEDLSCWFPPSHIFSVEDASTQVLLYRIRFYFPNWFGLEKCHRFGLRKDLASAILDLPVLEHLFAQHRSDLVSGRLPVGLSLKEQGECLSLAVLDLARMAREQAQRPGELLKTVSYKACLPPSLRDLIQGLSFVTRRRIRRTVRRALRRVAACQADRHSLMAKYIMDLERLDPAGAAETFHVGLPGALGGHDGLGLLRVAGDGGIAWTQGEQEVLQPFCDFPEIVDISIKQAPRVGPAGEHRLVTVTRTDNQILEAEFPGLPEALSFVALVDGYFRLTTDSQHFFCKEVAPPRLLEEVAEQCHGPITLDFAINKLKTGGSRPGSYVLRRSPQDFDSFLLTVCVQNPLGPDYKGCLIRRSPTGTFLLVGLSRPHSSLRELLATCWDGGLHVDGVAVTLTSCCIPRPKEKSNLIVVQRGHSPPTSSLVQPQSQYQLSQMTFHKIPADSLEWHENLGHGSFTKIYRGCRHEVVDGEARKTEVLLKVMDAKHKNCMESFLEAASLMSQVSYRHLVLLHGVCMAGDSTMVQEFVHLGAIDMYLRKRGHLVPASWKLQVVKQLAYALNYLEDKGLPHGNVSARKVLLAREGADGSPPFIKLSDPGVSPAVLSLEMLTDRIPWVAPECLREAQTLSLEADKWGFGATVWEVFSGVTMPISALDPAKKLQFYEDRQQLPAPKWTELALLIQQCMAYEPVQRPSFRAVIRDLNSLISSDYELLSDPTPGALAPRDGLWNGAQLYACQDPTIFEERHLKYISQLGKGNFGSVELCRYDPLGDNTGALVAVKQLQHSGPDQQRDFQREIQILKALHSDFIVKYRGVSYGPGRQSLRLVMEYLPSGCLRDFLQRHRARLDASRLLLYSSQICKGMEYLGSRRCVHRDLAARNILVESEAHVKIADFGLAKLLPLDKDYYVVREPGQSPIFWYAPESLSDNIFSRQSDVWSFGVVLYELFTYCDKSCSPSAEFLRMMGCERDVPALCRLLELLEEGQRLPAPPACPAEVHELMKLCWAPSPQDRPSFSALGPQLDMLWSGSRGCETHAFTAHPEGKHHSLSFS

[2] = Solubility of compound A in dissolution test fluids and water; assay type: physicochemical

Compound: NC(=O)c1cnc2[nH]ccc2c1N[C@@H]1[C@@H]2CC3C[C@H]1C[C@@](O)(C3)C2 [compound A, 4-{[(1R,2s,3S,5s,7s)-5-hydroxy-2-adamantyl]amino}-1H-pyrrolo[2,3-b]pyridine-5-carboxamide]
- JAK3 inhibitory activity [1]: superior
- difference in solubility between acidic and neutral pH range ([2]; JP1 pH 1.2 vs pH 6.8): about 1,000 times
- solubility ([2]; Japanese Pharmacopoeia, aqueous buffer, 2nd fluid for dissolution test JP2 (pH 6.8), read-out: solubility at a neutral pH range): ~8 µg/mL (≈ 0.0245 mM)
- solubility ([2]; Japanese Pharmacopoeia, simulated gastric fluid, 1st fluid for dissolution test JP1 (pH 1.2), read-out: solubility at an acidic pH range): ~8600 µg/mL (≈ 26.3 mM)
- solubility ([2]; aqueous buffer, pH 6.8 phosphate buffer, USP, read-out: solubility at a neutral pH range): ~11 µg/mL (≈ 0.0337 mM)
- solubility ([2]; water, read-out: solubility in water): ~12500 µg/mL (≈ 38.3 mM)
